# Experimental data: ChEMBL document CHEMBL3507680, “University of Dundee, Gates Library screen for HepG2 cell viability”
# Assay: Human HepG2 cell viability assay in 384 well format
# Format: toxicity, cell-based
# Design: dose 125 nL, time 70.5 hour; concentration not given beside the values
# Conditions: HepG2 cells, read-out: Inhibition
row,SMILES,cytotoxicity at 70.5 h
1,Cc1cccc(CN2CC[C@H]3O[C@H](C(=O)Nc4cnccn4)CC[C@H]32)n1,1.13%
2,CC(C)NC(=O)Nc1ccc(-c2nc3c([nH]2)CCNC3)cc1,-15.8%
3,CN(CCc1ccccn1)C(=O)Nc1cccnc1N1CCCC1,11.3%
4,CCc1nc(CN2CCCN(C(=O)CCc3ccco3)CC2)cs1,27.3%
5,COc1cc2c(cc1OC)S(=O)(=O)N(Cc1ccc(C)cc1)C2=O,-14.5%
6,CCn1ccnc1CN1C[C@@H](NC(=O)C2CC2)[C@H](c2ccc(C)cc2)C1,23.8%
7,CN(C)Cc1noc2c1CN(Cc1ccc[nH]1)CC2,-1.45%
8,Cc1cc(CN2CCN(C(=O)NCCCc3cn[nH]c3C)CC2)on1,-4.02%
9,CC1CCCN(C(=O)CNC(=O)c2ccoc2)C1 (configuration not stated),49.9%
10,O=C(C1CC1)N1C[C@@H](F)[C@@H](OCc2nc3cc(F)ccc3[nH]2)C1,-3.11%
11,Cn1ccnc1C(=O)NC[C@@H]1OC[C@H]2CN(S(C)(=O)=O)CC[C@H]21,-5.19%
12,CC(C)C(=O)Nc1cccc(CNC(=O)CSCc2ccccn2)c1,-11.7%
13,Cc1cc(C)n(CC2CCCN2C(=O)Cc2cn3ccccc3n2)n1 (configuration not stated),-3.71%
14,Cc1cccc(-c2nc(CNC3CCc4ncnn4C3)no2)c1 (configuration not stated),-4.91%
15,O=C(CN1CCCC1Cn1cccn1)NC1CCOCC1 (configuration not stated),-5.99%
16,Cc1nc(C2CCN(C(=O)c3ccnn3C)CC2)c2sccn12,-3.95%
17,CNc1ccnc(NCC(=O)Nc2cc(C)ccc2OC)n1,-5.67%
18,NC(=O)c1ccc(N2CCCCC2)c(NC(=O)c2cc(F)ccc2F)c1,-4.2%
19,NC(=O)C1CCN(CCc2ccc(NC(=O)C3CC3)cc2)CC1,-3.12%
20,O=C(c1ccco1)N1C[C@H]2CCCN(Cc3ccoc3)[C@H]2C1,-9.66%
21,COc1ccc(Cn2cc(C(=O)N(C)Cc3cnccn3)nn2)cc1,-14.3%
22,COc1ccccc1OC1(C(=O)O)CCN(c2ccccn2)CC1,1.96%
23,CN1C[C@@H](NC(=O)c2ccccc2)C[C@H]1c1nc(-c2cnccn2)no1,10.6%

row,SMILES,cytotoxicity at 70.5 h
1,CC(C)N1CCC(CNC(=O)CCc2cc(F)ccc2F)C1 (configuration not stated),14.8%
2,Cc1nc2ccccc2nc1CN1CCCC1Cn1cccn1 (configuration not stated),20.6%
3,Cc1ccnc(NCc2cn3nc(C)sc3n2)n1,1.46%
4,CN(C)C(=O)NCC(=O)N1CCCC2(CCC(=O)N(CC3CC3)C2)C1 (configuration not stated),-13.6%
5,O=C(N1CCCC1)N1CCC2(CC1)COCCN(Cc1cccnc1)C2,-4.16%
6,Cc1cnn(C2CN(CC(=O)NCC3(c4ccccc4)CC3)C2)c1,-6.95%
7,c1ccc(CO[C@H]2CO[C@@]3(CCN(Cc4ccoc4)C3)C2)nc1,-18.7%
8,Cc1cccc(OCCCNC(=O)Cn2ccc(C)cc2=O)c1,-6.82%
9,O=C(NC[C@H]1C[C@@H]2CCN1C[C@@H]2CN1CCOCC1)Nc1ccccc1,-2.16%
10,CC(NC(=O)Nc1ccccc1CN1CCOCC1)c1nccs1 (configuration not stated),-2.17%
11,CC(C)c1nc(CN2CCC(CO)CC2)cs1,34.5%
12,O=C(NCCN1CCOCC1)N(Cc1ccoc1)C1CCCCC1,1.39%
13,CNC(=O)[C@@H]1C[C@H](N)CN1S(=O)(=O)c1cc(Cl)cc(Cl)c1O,-6.21%
14,CN1CCC(NC(=O)NCCNc2ccccn2)CC1,-13.1%
15,CCC(=O)c1ccc(OCC(=O)NCC2CC(CC)=NO2)cc1 (configuration not stated),-1.34%
16,Cc1csc(N2CCN(CC(=O)Nc3nncs3)CC2C)n1 (configuration not stated),-10%
17,Cc1ccc2c(c1)C1(CCNCC1)CC2NC1CC1 (configuration not stated),2.66%
18,Cc1ccc(OCCC(=O)N2CCC(c3nncn3C)CC2)c(C)c1,1.76%
19,Cc1cnc(C(=O)N(CCN(C)C)Cc2ccc(Cl)cc2)cn1,-6.08%
20,Cc1cc(C)nc(CN2CCOC(c3ccc(Cl)cc3)C2)n1 (configuration not stated),-1.88%
21,Cc1ccc(-c2nnc(C(C)NCCn3cc(C)cn3)o2)cc1 (configuration not stated),-14.8%
22,CCc1oc(C(=O)NCCNS(C)(=O)=O)cc1CN1CCCC1,11.7%
23,CC(Cn1ccnc1)NC(=O)C1(c2cccc(Cl)c2)CC1 (configuration not stated),-1.52%

row,SMILES,cytotoxicity at 70.5 h
1,CNS(=O)(=O)c1csc(C(=O)N(C)Cc2sccc2C)c1,-6.58%
2,COCc1nc(-c2ccc(S(=O)(=O)N3CCCC3)cc2)cs1,-3.85%
3,Cc1cc(C(=O)N2CCCC(n3cncn3)C2)no1 (configuration not stated),-0.711%
4,Cc1ccc(N2CCCN(C(=O)c3c(C)oc(C)c3C)CC2)nn1,-4.32%
5,CC(Cn1cccn1)NCc1csc(-c2ccsc2)n1 (configuration not stated),-12.1%
6,NC(=O)NCC(=O)N1CCCC(OCc2cccnc2)C1 (configuration not stated),47.2%
7,COc1cc(N2CCO[C@H]3[C@@H](Oc4cccnc4)CC[C@@H]32)ncn1,26.1%
8,O=C(NC1CCCC1)NC1CCc2[nH]c(=O)ccc2C1 (configuration not stated),-7.5%
9,O=C(NC[C@H]1OC[C@@H](NC2CCCC2)[C@@H]1O)C1CCCC1,10.4%
10,CC(C)(C)N1CC(C(=O)N2CC(Oc3ccc(F)cc3)C2)CC1=O (configuration not stated),18.6%
11,CCN(Cc1nc(COC)no1)C[C@]1(O)CCCN2CCCC[C@@H]21,-10.1%
12,c1cncc(CN2CC[C@@H]3[C@@H]2CCN3Cc2ccc3c(c2)OCO3)c1,0.903%
13,CC1(C)CNC(=O)c2nc(-c3n[nH]c(=O)[nH]3)[nH]c2C1,-5.75%
14,CC(=O)N(C)CCc1nc(-c2cc(C(N)=O)co2)cs1,-6.25%
15,CCN1CCC(CC(=O)N[C@H](C(=O)O)c2cccc(F)c2F)CC1,-2.11%
16,COc1ccc(C(=O)N2Cc3cc(C)ccc3OCC2CN(C)C)cc1 (configuration not stated),3.28%
17,COCc1noc(-c2ccc(N3CCCCC3COC)nc2)n1 (configuration not stated),-11.8%
18,O=C(CN1CCCC1CC(=O)c1ccccc1)NCc1ccccn1 (configuration not stated),4.93%
19,CNC(=O)c1ccc(OC)c(NCc2noc(-c3cccs3)n2)c1,-16.8%
20,c1ccc2[nH]c(C3CCN(Cc4nnc(C5CC5)o4)CC3)nc2c1,-5.81%
21,O=C(N1CCC(Oc2ccncc2)C1)C1(c2cccc(F)c2)CC1 (configuration not stated),-1.35%
22,COC(=O)c1ccoc1CN(C)CC(=O)NC1CCS(=O)(=O)C1 (configuration not stated),3.53%
23,CC(=O)N1CCCn2nc(CNS(=O)(=O)Cc3ccccc3)cc2C1,-3.38%

row,SMILES,cytotoxicity at 70.5 h
1,O=C(NC1CCN(C(=O)C2CCCCC2)C1)c1ccncc1Cl (configuration not stated),-9.33%
2,CCCOCC1CCN(C(=O)c2cnc(-c3cccnc3)nc2O)C1 (configuration not stated),-6.25%
3,C=C(Cl)CN1CCC(C(=O)c2cc(F)ccc2F)CC1,-10.5%
4,CO[C@H]1CN(S(=O)(=O)c2ccccc2F)C[C@@]12CCCO2,-7.14%
5,CC1(C(=O)N2CCOCC2)CN(CC2CCOCC2)CCO1 (configuration not stated),-0.606%
6,O=C(CCCc1ncc(-c2ccccc2)o1)N1CCN(CCO)CC1,-7.53%
7,COCC(=O)N1C[C@H]2CN(Cc3cccc(F)c3)C(=O)[C@H]2C1,8.07%
8,NC1(c2nc(-c3cccs3)cc(=O)[nH]2)CCCCC1,7.44%
9,Cc1ccc(NC(=O)C2CSCN2C(=O)c2cnn(C)c2)c(C)c1 (configuration not stated),-4.99%
10,O=C(COC1CCCC1)N1CC[C@H]2OCC[C@@]2(COCC2CC2)C1,-3.35%
11,O=C(NC1CCN(Cc2ccc(F)cc2)CC1)c1ccc2c(c1)CCC2,-6.88%
12,CS(=O)(=O)N1CC2(CCN(CC3CCCCC3)C2)Cc2ccccc21 (configuration not stated),-3.19%
13,CCOc1ccc(NC(=O)c2oc(CC)cc2C)cc1CO,-3.11%
14,CC(C(N)=O)N1CCN(c2ncc(Cl)cn2)CC1 (configuration not stated),-5.36%
15,Cc1ccccc1N1CCN(C(=O)CCc2nncn2C)C(C)C1 (configuration not stated),-1.67%
16,O=C(CN1C(=O)CCC1=O)N1Cc2cncnc2C1,-2.85%
17,CCN(Cc1ccc2c(c1)OCO2)C(=O)CCc1c(C)nc(C)[nH]c1=O,-4.97%
18,CCN(CC)C(CNCc1ccc(OC)c(F)c1)c1ccco1 (configuration not stated),54.9%
19,NC(=O)COc1ccc(CN2CCC(O)(CN3CCCCC3)C2)cc1Cl (configuration not stated),-12.1%
20,Cc1cnn(CC(C)NCc2nc(-c3ccccn3)no2)c1 (configuration not stated),-7.46%
21,COc1cccc(C2CCN2C(=O)c2cnccn2)c1 (configuration not stated),-2.61%
22,CN(CC(=O)N(C)C(c1ccc(Cl)cc1)c1cccnc1)C1CC1 (configuration not stated),-5.57%
23,CC(C)(C)c1nc(CN2CCCN(Cc3cccs3)CC2)no1,-18.1%

row,SMILES,cytotoxicity at 70.5 h
1,COc1ccccc1OC1CCN(C(=O)c2cnc(C)cc2C)CC1,-5%
2,O=C(Cc1ccccn1)N1CCN2C[C@H](Oc3cccc(F)c3)C[C@H]2C1,33.7%
3,CCN(C(c1cccnc1)c1ccc(F)cc1F)S(C)(=O)=O (configuration not stated),-12.1%
4,Cc1nc(C)c(C(=O)NCCn2nc3ccccn3c2=O)s1,-1.89%
5,COc1cccc(CN2CCCCCC2c2cccc(F)c2)c1O (configuration not stated),-1.29%
6,CN(C)C(=O)c1cc2c(nc1NCC1CC1)CCN(CC1CC1)CC2,5.16%
7,Cc1noc(C(C)N2CCN(Cc3ccco3)CC2)n1 (configuration not stated),-11.9%
8,CC(=O)c1cccc(OCCCC(=O)N(C)Cc2cscn2)c1,7.32%
9,COc1c(CNCc2ccccc2-n2ccnc2)c(C)nn1C,8.51%
10,COC[C@@]12CCO[C@@H]1CCN(C(=O)CCc1ccccc1Cl)C2,-3.89%
11,Cc1occc1C(=O)N1CCC2(CCC(C(=O)NCC3CC3)O2)CC1 (configuration not stated),-12.7%
12,Cc1nc(CN2C(=O)COC3(CCN(C)CC3)C2C)cs1 (configuration not stated),4.23%
13,O=C(NCc1cccc(F)c1)c1cccc(C(=O)N2CCCC2)n1,3.72%
14,CC(C)CC(=O)N1CC[C@@H]2[C@H](CC1)N(Cc1cccnc1)CCS2(=O)=O,3.17%
15,Cn1cc(-c2ccnc(NCC3CCCCO3)n2)cn1 (configuration not stated),9.61%
16,Cc1nc(CN2CCCC(c3nccs3)C2)cs1 (configuration not stated),-0.693%
17,CC(C)C(=O)Nc1cc(C(C)(C)C)nn1-c1ccccn1,-3.18%
18,O=C1OC2(CCNCC2)CN1CC(=O)N1CCCC1c1nccs1 (configuration not stated),-7.02%
19,Cc1ccc(CN(C)C(=O)CN2CCCC2Cn2cncn2)cc1 (configuration not stated),-3.7%
20,Cc1nn(CCNS(=O)(=O)NCc2ccccc2)c(C)c1Cl,-6.81%
